# Test results published in PubChem BioAssay (NCI).
#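 Assay format: 96-well plates, 48-hour exposure. Abbreviation: GI50, concentration required for 50% inhibition of growth. Definition used: TGI = concentration required for complete inhibition of growth.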
# Experiments:
# Assay in all cases: DTP human tumour cell line panel, 48 h
# [1] = test system: COLO 205 colon
# [2] = test system: SF-268 CNS
# [3] = test system: U251 CNS
# [4] = test system: BT-549 breast
# [5] = test system: LOX IMVI melanoma
# [6] = test system: SNB-19 CNS
# [7] = test system: T-47D breast
# [8] = test system: NCI/ADR-RES ovarian
# [9] = test system: NCI-H460 lung
# [10] = test system: OVCAR-4 ovarian
# [11] = test system: SF-539 CNS
# [12] = test system: K-562 leukemia
# [13] = test system: A498 renal
# [14] = test system: MDA-MB-435
# [15] = test system: OVCAR-8 ovarian
# [16] = test system: PC-3 prostate
# [17] = test system: SW-620 colon
# [18] = test system: CCRF-CEM leukemia
# [19] = test system: SK-MEL-2 melanoma
# [20] = test system: SK-OV-3 ovarian
# [21] = test system: RPMI-8226 leukemia
# [22] = test system: EKVX NSCLC
# [23] = test system: OVCAR-5 ovarian
# [24] = test system: MDA-MB-231 breast
# [25] = test system: UACC-62 melanoma
# [26] = test system: UO-31 renal
# [27] = test system: NCI-H522 lung
# [28] = test system: MOLT-4 leukemia
# [29] = test system: A549 NSCLC
structure (smiles),measurement,setting,value
O=C(Nc1cccc(-n2ccc3c(NC(=O)c4ccccc4)nccc32)c1)Nc1ccc(Cl)c(C(F)(F)F)c1,GI50,[1],273 nM
same,TGI,[1],737 nM
same,GI50,[2],696 nM
same,TGI,[2],> 40000 nM
same,GI50,[3],495 nM
same,TGI,[3],17700 nM
same,GI50,[4],697 nM
same,TGI,[4],10400 nM
same,GI50,[5],649 nM
same,TGI,[5],31600 nM
same,GI50,[6],494 nM
same,TGI,[6],> 100000 nM
same,GI50,[7],2880 nM
same,TGI,[7],> 100000 nM
same,GI50,[8],252 nM
same,TGI,[8],667 nM
same,GI50,[9],337 nM
same,TGI,[9],18300 nM
same,GI50,[10],971 nM
same,TGI,[10],> 100000 nM
same,GI50,[11],308 nM
same,TGI,[11],3980 nM
same,GI50,[12],386 nM
same,TGI,[12],> 100000 nM
same,GI50,[13],210 nM
same,TGI,[13],1350 nM
same,GI50,[14],227 nM
same,TGI,[14],605 nM
same,GI50,[15],431 nM
same,TGI,[15],> 39600 nM
same,GI50,[16],432 nM
same,TGI,[16],> 36100 nM
same,GI50,[17],395 nM
same,TGI,[17],> 100000 nM
same,GI50,[18],332 nM
same,TGI,[18],> 100000 nM
same,GI50,[19],358 nM
same,TGI,[19],2620 nM
same,GI50,[20],346 nM
same,TGI,[20],20600 nM
same,GI50,[21],424 nM
same,TGI,[21],7020 nM
same,GI50,[22],633 nM
same,TGI,[22],> 100000 nM
same,GI50,[23],482 nM
same,TGI,[23],> 100000 nM
same,GI50,[24],420 nM
same,TGI,[24],14200 nM
same,GI50,[25],490 nM
same,TGI,[25],20000 nM
same,GI50,[26],1350 nM
same,TGI,[26],> 100000 nM
same,GI50,[27],211 nM
same,TGI,[27],642 nM
same,GI50,[28],885 nM
same,TGI,[28],> 100000 nM
same,GI50,[29],485 nM
same,TGI,[29],> 100000 nM
